Experimental data reported in PubChem BioAssay (NCI).
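Exposure lasted 48 hours, with cells grown in 96-well plates and compounds tested at five concentrations. TGI is the concentration that stops growth completely.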

Experiments:
Experiment in all cases: growth of human tumour cells (NCI), 48 h
SK-MEL-28 melanoma = test system: SK-MEL-28 melanoma
M14 melanoma = test system: M14 melanoma
CAKI-1 renal = test system: CAKI-1 renal
MOLT-4 leukemia = test system: MOLT-4 leukemia
LOX IMVI melanoma = test system: LOX IMVI melanoma
NCI-H460 lung = test system: NCI-H460 lung
RXF 393 renal = test system: RXF 393 renal
A549 NSCLC = test system: A549 NSCLC
OVCAR-8 ovarian = test system: OVCAR-8 ovarian
MDA-N = test system: MDA-N
SK-MEL-5 melanoma = test system: SK-MEL-5 melanoma
OVCAR-4 ovarian = test system: OVCAR-4 ovarian
HCC-2998 colon = test system: HCC-2998 colon
CCRF-CEM leukemia = test system: CCRF-CEM leukemia
NCI-H226 lung = test system: NCI-H226 lung
NCI-H522 lung = test system: NCI-H522 lung
EKVX NSCLC = test system: EKVX NSCLC
MALME-3M melanoma = test system: MALME-3M melanoma
HL-60(TB) leukemia = test system: HL-60(TB) leukemia
786-0 renal = test system: 786-0 renal
HOP-92 NSCLC = test system: HOP-92 NSCLC
ACHN renal = test system: ACHN renal
HT29 colon = test system: HT29 colon
MDA-MB-231 breast = test system: MDA-MB-231 breast
A498 renal = test system: A498 renal
HCT-15 colon = test system: HCT-15 colon
IGROV1 ovarian = test system: IGROV1 ovarian
HCT-116 colon = test system: HCT-116 colon
HOP-62 NSCLC = test system: HOP-62 NSCLC
OVCAR-5 ovarian = test system: OVCAR-5 ovarian
MDA-MB-435 = test system: MDA-MB-435
SNB-75 CNS = test system: SNB-75 CNS
NCI-H23 lung = test system: NCI-H23 lung
MCF7 breast = test system: MCF7 breast
HS 578T breast = test system: HS 578T breast
DU-145 prostate = test system: DU-145 prostate
TK-10 renal = test system: TK-10 renal
UACC-257 melanoma = test system: UACC-257 melanoma
NCI/ADR-RES ovarian = test system: NCI/ADR-RES ovarian
RPMI-8226 leukemia = test system: RPMI-8226 leukemia
KM12 colon = test system: KM12 colon
PC-3 prostate = test system: PC-3 prostate
UO-31 renal = test system: UO-31 renal
SN12C renal = test system: SN12C renal
SNB-19 CNS = test system: SNB-19 CNS
T-47D breast = test system: T-47D breast
BT-549 breast = test system: BT-549 breast
U251 CNS = test system: U251 CNS
COLO 205 colon = test system: COLO 205 colon
UACC-62 melanoma = test system: UACC-62 melanoma
SF-539 CNS = test system: SF-539 CNS
SK-MEL-2 melanoma = test system: SK-MEL-2 melanoma
SF-268 CNS = test system: SF-268 CNS
K-562 leukemia = test system: K-562 leukemia
SW-620 colon = test system: SW-620 colon
SF-295 CNS = test system: SF-295 CNS
OVCAR-3 ovarian = test system: OVCAR-3 ovarian
SK-OV-3 ovarian = test system: SK-OV-3 ovarian

**Q.** What does the source list for `Cc1nc2c(cc1OCc1ccccc1)C(=O)C1=C(C2=O)C2OC(=O)CC2OC1(C)C` (stereo not drawn)?
**A.** TGI (SK-MEL-28 melanoma): 1.14 µM; TGI (M14 melanoma): 1.77 µM; TGI (CAKI-1 renal): 1.67 µM; TGI (MOLT-4 leukemia): 87.9 µM; TGI (LOX IMVI melanoma): 0.475 µM; TGI (NCI-H460 lung): 2.9 µM; TGI (RXF 393 renal): 1.64 µM; TGI (A549 NSCLC): 21.2 µM; TGI (OVCAR-8 ovarian): 12.3 µM; TGI (MDA-N): 1.75 µM; TGI (SK-MEL-5 melanoma): 2.61 µM; TGI (OVCAR-4 ovarian): 1.94 µM; TGI (HCC-2998 colon): 1.91 µM; TGI (CCRF-CEM leukemia): 0.451 µM; TGI (NCI-H226 lung): 2.98 µM; TGI (NCI-H522 lung): 0.387 µM; TGI (EKVX NSCLC): 3.63 µM; TGI (MALME-3M melanoma): 2.25 µM; TGI (HL-60(TB) leukemia): 0.371 µM; TGI (786-0 renal): 1.07 µM; TGI (HOP-92 NSCLC): 1.42 µM; TGI (ACHN renal): 1.86 µM; TGI (HT29 colon): 1.41 µM; TGI (MDA-MB-231 breast): 1.51 µM; TGI (A498 renal): 3.02 µM; TGI (HCT-15 colon): 0.634 µM; TGI (IGROV1 ovarian): 1.31 µM; TGI (HCT-116 colon): 1.04 µM; TGI (HOP-62 NSCLC): 2.87 µM; TGI (OVCAR-5 ovarian): 2.16 µM; TGI (MDA-MB-435): 1.8 µM; TGI (SNB-75 CNS): 3.94 µM; TGI (NCI-H23 lung): 2.32 µM; TGI (MCF7 breast): 0.339 µM; TGI (HS 578T breast): 0.583 µM; TGI (DU-145 prostate): 3.09 µM; TGI (TK-10 renal): 2.75 µM; TGI (UACC-257 melanoma): 1.93 µM; TGI (NCI/ADR-RES ovarian): 28.9 µM; TGI (RPMI-8226 leukemia): > 100 µM; TGI (KM12 colon): 2 µM; TGI (PC-3 prostate): 1.8 µM; TGI (UO-31 renal): 3.24 µM; TGI (SN12C renal): 0.443 µM; TGI (SNB-19 CNS): 5.65 µM; TGI (T-47D breast): 1.23 µM; TGI (BT-549 breast): 1.88 µM; TGI (U251 CNS): 2.14 µM; TGI (COLO 205 colon): 1.15 µM; TGI (UACC-62 melanoma): 0.322 µM; TGI (SF-539 CNS): 2.04 µM

**Q.** What does the source list for `CCCCCCCCP(=O)(O)OP(=O)(O)OCC1OC(n2ccc(N)nc2=O)C(O)C1O` (stereo not drawn)?
**A.** TGI (SK-MEL-28 melanoma): > 100 µM; TGI (M14 melanoma): > 100 µM; TGI (CAKI-1 renal): > 100 µM; TGI (MOLT-4 leukemia): > 100 µM; TGI (LOX IMVI melanoma): > 100 µM; TGI (NCI-H460 lung): > 100 µM; TGI (SK-MEL-2 melanoma): > 100 µM; TGI (RXF 393 renal): > 100 µM; TGI (SF-268 CNS): > 100 µM; TGI (A549 NSCLC): > 100 µM; TGI (OVCAR-8 ovarian): > 100 µM; TGI (MDA-N): > 100 µM; TGI (SK-MEL-5 melanoma): > 100 µM; TGI (OVCAR-4 ovarian): > 100 µM; TGI (HCC-2998 colon): > 100 µM; TGI (CCRF-CEM leukemia): > 100 µM; TGI (K-562 leukemia): > 100 µM; TGI (NCI-H226 lung): > 100 µM; TGI (NCI-H522 lung): > 100 µM; TGI (EKVX NSCLC): > 100 µM; TGI (MALME-3M melanoma): > 100 µM; TGI (HL-60(TB) leukemia): > 100 µM; TGI (786-0 renal): > 100 µM; TGI (HOP-92 NSCLC): > 100 µM; TGI (SW-620 colon): > 100 µM; TGI (ACHN renal): > 100 µM; TGI (HT29 colon): > 100 µM; TGI (MDA-MB-231 breast): > 100 µM; TGI (A498 renal): > 100 µM; TGI (HCT-15 colon): > 100 µM; TGI (IGROV1 ovarian): > 100 µM; TGI (HCT-116 colon): > 100 µM; TGI (HOP-62 NSCLC): > 100 µM; TGI (OVCAR-5 ovarian): > 100 µM; TGI (MDA-MB-435): > 100 µM; TGI (SNB-75 CNS): > 100 µM; TGI (SF-295 CNS): > 100 µM; TGI (NCI-H23 lung): > 100 µM; TGI (MCF7 breast): > 100 µM; TGI (HS 578T breast): > 100 µM; TGI (OVCAR-3 ovarian): > 100 µM; TGI (TK-10 renal): > 100 µM; TGI (UACC-257 melanoma): > 100 µM; TGI (NCI/ADR-RES ovarian): > 100 µM; TGI (RPMI-8226 leukemia): > 100 µM; TGI (KM12 colon): > 100 µM; TGI (PC-3 prostate): > 100 µM; TGI (UO-31 renal): > 100 µM; TGI (SN12C renal): > 100 µM; TGI (SNB-19 CNS): > 100 µM; TGI (T-47D breast): > 100 µM; TGI (BT-549 breast): > 100 µM; TGI (U251 CNS): > 100 µM; TGI (COLO 205 colon): > 100 µM; TGI (SK-OV-3 ovarian): > 100 µM; TGI (UACC-62 melanoma): > 100 µM; TGI (SF-539 CNS): > 100 µM
